Measured values: patent publication US7259271B2, “Peripherally-selective inhibitors of dopamine-β-hydroxylase and method of their preparation” (Portela & C.A., S.A., priority 2002, dated 2007)
Counter-ions that a name gives are not always drawn.

Target: T1, human DβH (Homo sapiens, UniProt P09172)
T1 construct: SK-N-SH cells (ATCC HTB-11), a human neuroblastoma derived cell line, were used as a source of human DβH; host or cells: SK-N-SH cells
T1 sequence (P09172 1-617): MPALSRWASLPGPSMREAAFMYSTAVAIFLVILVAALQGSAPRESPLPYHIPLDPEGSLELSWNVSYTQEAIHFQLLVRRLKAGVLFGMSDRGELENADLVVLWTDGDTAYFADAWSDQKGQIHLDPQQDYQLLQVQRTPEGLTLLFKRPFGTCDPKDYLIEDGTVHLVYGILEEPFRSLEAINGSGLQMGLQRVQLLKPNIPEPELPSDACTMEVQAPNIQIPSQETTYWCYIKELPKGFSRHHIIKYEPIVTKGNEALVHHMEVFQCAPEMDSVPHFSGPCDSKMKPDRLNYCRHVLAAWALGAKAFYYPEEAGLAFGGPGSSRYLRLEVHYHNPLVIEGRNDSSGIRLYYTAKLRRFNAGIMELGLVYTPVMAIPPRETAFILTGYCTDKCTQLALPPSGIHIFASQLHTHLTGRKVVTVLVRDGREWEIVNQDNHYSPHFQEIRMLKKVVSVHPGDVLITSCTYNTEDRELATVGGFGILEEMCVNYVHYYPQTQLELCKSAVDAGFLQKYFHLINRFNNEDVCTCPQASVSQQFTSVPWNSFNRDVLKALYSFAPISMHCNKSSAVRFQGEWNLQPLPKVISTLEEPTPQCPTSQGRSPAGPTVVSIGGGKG
Test: DβH activity (β-hydroxylation of dopamine to noradrenaline) in SK-N-SH cells
Format: cell-based
Settings: for DβH activity in SK-N-SH cells, Mean ± SEM: compound 5 μM, 50 mM dopamine; for inhibition of DβH activity (in words): 5 μM, as listed in Table 1; for remaining activity at 5 µM: SK-N-SH, 0.75 h, read-out: DβH activity in SK-N-SH cells, Mean ± SEM; for IC50 values against human DβH activity (in words): concentration-dependent decrease in β-hydroxylation of dopamine; for IC50: read-out: IC50 for inhibition of DβH in SK-N-SH cells
Procedure: SK-N-SH cells (ATCC HTB-11), a human neuroblastoma derived cell line, were used as a source of human DβH. SK-N-SH cells cultured in 24 well plates were preincubated for 20 min in a reaction medium containing 200 mM sodium acetate, 30 mM N-ethylmaleimide, 5 μM copper sulphate, 0.5 mg/ml catalase aqueous solution, 1 mM pargyline, 10 mM sodium fumarate and 20 mM ascorbic acid. […] During preincubation and incubation, the cells were continuously shaken and maintained at 37° C. The reaction was terminated by the addition of 0.2 M perchloric acid. The acidified samples were stored at 4° C. before injection into the high pressure liquid chromatograph for the assay of noradrenaline.

Compound | inhibition of DβH activity (in words) | remaining activity at 5 µM | further results
COc1ccc2c(c1)C[C@@H](n1c(CCN)c[nH]c1=S)CS2.Cl (racemic) [Compound 30, (R,S)-5-(2-aminoethyl)-1-(6-methoxythiochroman-3-yl)-1,3-droimidazole-2-thione hydrochloride] | – | – | DβH activity in SK-N-SH cells, Mean ± SEM: 99.4 ± 2.8 % of control
Cl.NCCc1c[nH]c(=S)n1[C@H]1CSc2ccc(O)cc2C1 (racemic) [Compound 31, (R,S)-5-(2-aminoethyl)-1-(6-hydroxythiochroman-3-yl)-1,3-dihydroimidazole-2-thione hydrochloride] | – | – | DβH activity in SK-N-SH cells, Mean ± SEM: 27.3 ± 0.4 % of control
Cl.NCCc1c[nH]c(=S)n1[C@H]1CCc2c(F)cc(F)cc2C1 [Compound 2, (S)-5-(2-aminoethyl)-1-(5,7-difluoro-1,2,3,4-tetrahydronaphthalen-2-yl)-1,3-dihydroimidazole-2-thione hydrochloride] | markedly inhibit | 1.6 ± 0.3% | IC50 values against human DβH activity (in words): low nM range; IC50: 60 nM
Cl.NCc1c[nH]c(=S)n1[C@H]1COc2c(F)cc(F)cc2C1 [Compound 3, (R)-5-aminomethyl-1-(6,8-difluorochroman-3-yl)-1,3-dihydroimidazole-2-thione hydrochloride] | markedly inhibit | 4.1 ± 0.6% | IC50 values against human DβH activity (in words): low nM range; IC50: 91 nM
Cl.NCCCc1c[nH]c(=S)n1[C@H]1CCc2c(F)cc(F)cc2C1 [Compound 5, (S)-5-(3-aminopropyl)-1-(5,7-difluoro-1,2,3,4-tetrahydronaphthalen-2-yl)-1,3-dihydroimidazole-2-thione hydrochloride] | markedly inhibit | 8.1 ± 0.3% | –
Cl.NCCc1c[nH]c(=S)n1[C@H]1COc2c(F)cccc2C1 [Compound 6, (R)-5-(2-aminoethyl)-1-(8-fluorochroman-3-yl)-1,3-dihydroimidazole-2-thione hydrochloride] | markedly inhibit | 6.9 ± 0.6% | –
Cl.NCCc1c[nH]c(=S)n1[C@H]1COc2ccc(F)cc2C1 [Compound 7, (R)-5-(2-aminoethyl)-1-(6-fluorochroman-3-yl)-1,3-dihydroimidazole-2-thione hydrochloride] | markedly inhibit | 8 ± 0.1% | –
Cl.NCCc1c[nH]c(=S)n1[C@H]1COc2cc(F)c(F)cc2C1 [Compound 8, (R)-5-(2-aminoethyl)-1-(6,7-difluorochroman-3-yl)-1,3-dihydroimidazole-2-thione hydrochloride] | markedly inhibit | 9.4 ± 0.7% | –
NCCc1c[nH]c(=S)n1[C@@H]1COc2c(F)cc(F)cc2C1 [Compound 9, (S)-5-(2-aminoethyl)-1-(6,8-difluorochroman-3-yl)-1,3-dihydroimidazole-2-thione hydrochloride] | – | 50.2 ± 1.9% | –
Cl.NCCc1c[nH]c(=S)n1[C@H]1COc2c(cc(F)c(F)c2F)C1 [Compound 10, (R)-5-(2-aminoethyl)-1-(6,7,8-trifluorochroman-3-yl)-1,3-dihydroimidazole-2-thione hydrochloride] | markedly inhibit | 8.2 ± 0.7% | –
COc1cc(Cl)cc2c1OC[C@H](n1c(CCN)c[nH]c1=S)C2 [Compound 11, (R)-5-(2-aminoethyl)-1-(6-chloro-8-methoxychroman-3-yl)-1,3-dihydroimidazole-2-thione hydrochloride] | – | 36.7 ± 4.4% | –
Cl.NCCc1c[nH]c(=S)n1[C@H]1COc2ccccc2C1 [Compound 12, (R)-5-(2-aminoethyl)-1-chroman-3-yl-1,3-dihydroimidazole-2-thione hydrochloride] | markedly inhibit | 3 ± 0.5% | –
COc1cc(Cl)c2c(c1)C[C@@H](n1c(CCN)c[nH]c1=S)CO2 [Compound 13, (R)-5-(2-aminoethyl)-1-(6-methoxy-8-chlorochroman-3-yl)-1,3-dihydroimidazole-2-thione hydrochloride] | – | 94 ± 3.1% | –
CC(=O)Nc1ccc2c(c1)C[C@@H](n1c(CCN)c[nH]c1=S)CO2 [Compound 14, (R)-5-(2-aminoethyl)-1-[6-(acetylamino)chroman-3-yl]-1,3-dihydroimidazole-2-thione hydrochloride] | – | 77.9 ± 2.2% | –
NCCc1c[nH]c(=S)n1[C@H]1COc2cc(Cc3ccccc3)c(O)cc2C1 [Compound 15, (R)-5-(2-aminoethyl)-1-(6-hydroxy-7-benzylchroman-3-yl)-1,3-dihydroimidazole-2-thione hydrochloride] | – | 86.1 ± 2.7% | –

Second part, led by results:

inhibition of DβH activity (in words) | remaining activity at 5 µM | Compound | further results
markedly inhibit | 0% | Cl.NCCc1c[nH]c(=S)n1[C@H]1COc2ccc(O)cc2C1 [Compound 16, (R)-5-(2-aminoethyl)-1-(6-hydroxychroman-3-yl)-1,3-dihydroimidazole-2-thione hydrochloride] | –
– | 53.2 ± 3.9% | NCCc1c[nH]c(=S)n1[C@H]1COc2c(cccc2[N+](=O)[O-])C1 [Compound 17, (R)-5-(2-aminoethyl)-1-(8-nitrochroman-3-yl)-1,3-dihydroimidazole-2-thione hydrochloride] | –
– | 94.8 ± 1.2% | NCCc1c[nH]c(=S)n1[C@H]1COc2ccc([N+](=O)[O-])cc2C1 [Compound 18, (R)-5-(2-aminoethyl)-1-(6-nitrochroman-3-yl)-1,3-dihydroimidazole-2-thione hydrochloride] | –
markedly inhibit | 6.9 ± 0.5% | COc1cccc2c1OC[C@H](n1c(CCN)c[nH]c1=S)C2.Cl [Compound 19, (R)-5-(2-aminoethyl)-1-(8-methoxychroman-3-yl)-1,3-dihydroimidazole-2-thione hydrochloride] | –
– | 16.8 ± 4.8% | NCCc1c[nH]c(=S)n1[C@H]1CCc2ccccc2C1 [Compound 20, (S)-5-(2-aminoethyl)-1-(1,2,3,4-tetrahydronaphthalen-2-yl)-1,3-dihydroimidazole-2-thione hydrochloride] | –
– | 125 ± 6.5% | NCCc1c[nH]c(=S)n1[C@H]1COc2c(O)cccc2C1 [Compound 21, (R)-5-(2-aminoethyl)-1-(8-hydroxychroman-3-yl)-1,3-dihydroimidazole-2-thione hydrochloride] | –
– | 17.8 ± 2.1% | NCc1c[nH]c(=S)n1[C@H]1COc2ccc(O)cc2C1 [Compound 22, (R)-5-aminomethyl-1-(6-hydroxychroman-3-yl)-1,3-dihydroimidazole-2-thione hydrochloride] | –
– | 54.5 ± 9.9% | COc1ccc2c(c1)C[C@@H](n1c(CCN)c[nH]c1=S)CO2 [Compound 23, (R)-5-(2-aminoethyl)-1-(6-methoxychroman-3-yl)-1,3-dihydroimidazole-2-thione hydrochloride] | –
markedly inhibit | 0% | Cl.NCc1c[nH]c(=S)n1[C@H]1COc2ccccc2C1 [Compound 24, (R)-5-aminomethyl-1-chroman-3-yl-1,3-dihydroimidazole-2-thione hydrochloride] | –
– | 66 ± 4.5% | COc1ccc2c(c1)C[C@@H](n1c(CCNCc3ccccc3)c[nH]c1=S)CO2 [Compound 25, (R)-5-(2-Benzylaminoethyl)-1-(6-methoxychroman-3-yl)-1,3-dihydroimidazole-2-thione hydrochloride] | –
markedly inhibit | 4.5 ± 1.9% | Cl.Oc1ccc2c(c1)C[C@@H](n1c(CCNCc3ccccc3)c[nH]c1=S)CO2 [Compound 26, (R)-5-(2-Benzylaminoethyl)-1-(6-hydroxychroman-3-yl)-1,3-dihydroimidazole-2-thione hydrochloride] | –
– | 15.5 ± 5.8% | CNCCc1c[nH]c(=S)n1[C@H]1COc2ccc(O)cc2C1 [Compound 27, (R)-1-(6-Hydroxychroman-3-yl)-5-(2-methylaminoethyl)-1,3-dihydroimidazole-2-thione hydrochloride] | –
markedly inhibit | 2.6 ± 1.6% | CNCCc1c[nH]c(=S)n1[C@H]1COc2c(F)cc(F)cc2C1.Cl [Compound 28, (R)-1-(6,8-Difluorochroman-3-yl)-5-(2-methylaminoethyl)-1,3-dihydroimidazole-2-thione hydrochloride] | –
markedly inhibit | 2.2 ± 2.5% | CNCCc1c[nH]c(=S)n1[C@H]1COc2ccccc2C1.Cl [Compound 29, (R)-1-Chroman-3-yl-5-(2-methylaminoethyl)-1,3-dihydroimidazole-2-thione hydrochloride] | –
